From the supplement of paper PMC11451515

Columns and labels:
Experiment in all cases: AUC of viability dose-response curve (% viability x log10 dose units); higher = less sensitive
Details in all cases: 48 h
SEM cells = tested on: SEM cells
Method in brief: (§1)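 Leukemia cells adapted to each medium were seeded at 500 or 1000 cells/well in 1536-well plates and dosed with library compounds in DMSO at 11 threefold doses from 47 μM to 0.79 nM for 48 h at 37°C. CellTiter-Glo One luminescence was normalised per plate to DMSO and cell-free wells, then fitted with a four-parameter log-logistic model over log10 doses. Area under the curve was taken from this fit by the trapezoidal rule, with curves above full viability scaled and curves failing quality control removed.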

NOMO1 = tested on: NOMO1
Method in brief: as §1

P12-Ichikawa = tested on: P12-Ichikawa
Method in brief: as §1

[1] = RPMI 5 mM glucose + 10% dialyzed FBS

| SMILES | AUC of viability dose-response curve (SEM cells; HPLM + 10% dialyzed FBS) | AUC of viability dose-response curve (SEM cells; RPMI 5 mM glucose + 10% FBS) | AUC of viability dose-response curve (SEM cells; [1]) | AUC of viability dose-response curve (NOMO1; HPLM + 10% dialyzed FBS) | AUC of viability dose-response curve (NOMO1; RPMI 5 mM glucose + 10% FBS) | AUC of viability dose-response curve (NOMO1; [1]) | AUC of viability dose-response curve (P12-Ichikawa; HPLM + 10% dialyzed FBS) | AUC of viability dose-response curve (P12-Ichikawa; RPMI 5 mM glucose + 10% FBS) | AUC of viability dose-response curve (P12-Ichikawa; [1]) |
| --- | --- | --- | --- | --- | --- | --- | --- | --- | --- |
| CN1\C(=C(\O)C2=C(C=CS2)[S+]1([O-])=O)C(=O)NC3=CC=CC=N3 | 467 | 474 | 475 | 450 | 453 | 455 | 465 | 449 | 459 |
| CCC1(c2ccc(N)cc2)CCC(=O)NC1=O (stereo not drawn) | 433 | 424 | 401 | 463 | 473 | 465 | 449 | 427 | 434 |
| ClC1=CC(=CC=C1)N2CCN(CCCN3\N=C4\C=C/C=C\N4C3=O)CC2 | 419 | 446 | 464 | 465 | 453 | 451 | 453 | 473 | 468 |
| CCOc1cc(N)c(Cl)cc1C(=O)NCC1CN(Cc2ccc(F)cc2)CCO1 (stereo not drawn) | 419 | 467 | 466 | 464 | 470 | 460 | 467 | 467 | 469 |
| C=CC1=C(C(=O)O)N2C(=O)[C@@H](NC(=O)/C(=N\O)c3csc(N)n3)[C@H]2SC1 | 397 | 435 | 433 | 467 | 438 | 462 |  |  |  |
| CC\1=C(C(=O)N(\C=C1)C2=CC=C(C=C2)C3=NC=CO3)/C4=CC5=CN=C(N)N=C5C=C4 | 383 | 387 | 350 | 470 | 456 | 472 | 472 | 467 | 465 |
| OC[C@H](Cc1ccccc1)Nc1nc(Oc2ccc3c(c2)CCC3)nc2c1ncn2Cc1ccc(-c2ccccc2)cc1 | 455 | 428 | 432 | 463 | 434 | 458 | 454 | 431 | 418 |
| CN(C)CCc1c[nH]c2ccc(C[C@H]3COC(=O)N3)cc12 | 384 | 340 | 381 | 423 | 433 | 449 | 405 | 409 | 411 |
| CNC1[C@@H](O)C(O[C@@H]2C(O)C(O[C@H]3O[C@H]([C@@H](C)NC)CC[C@H]3N)[C@@H](N)C[C@H]2N)OC[C@]1(C)O (stereo partly drawn) | 459 | 421 | 472 | 446 | 448 | 415 | 462 | 444 | 436 |
| C[C@@]12O[C@@H](C[C@]1(O)CO)n1c3ccccc3c3c4c(c5c6ccccc6n2c5c31)CNC4=O | 251 | 217 | 228 | 313 | 326 | 324 | 326 | 311 | 311 |
| Oc1ccc(C2CCN(c3ccnc4ccccc34)CC2)cc1O | 399 | 386 | 404 | 445 | 457 | 467 | 427 | 418 | 408 |
| CC(C)C[C@H](NC(=O)[C@@H](NC(=O)c1cccc(-c2ccccc2)n1)[C@@H](C)O)B(O)O | 155 | 149 | 149 | 212 | 218 | 230 | 197 | 184 | 201 |
| C\C1=C\C(=O)C2=C(C=CC=C2)C1=O | 464 | 458 | 435 | 466 | 460 | 456 | 465 | 440 | 468 |
| NC1=NC=C(C=C1)C2=CC=C3N=CC\4=C(N(C(=O)\C=C4)C5=CC(=CC=C5)C(F)(F)F)C3=C2 |  |  |  | 191 | 214 | 194 |  |  |  |
| C[C@@H]1CN[C@H]2[C@@H](C)[C@@]\3(CC[C@H]\4[C@@H]5C/C=C6/C[C@@H](O)CC[C@]6(C)[C@H]5CC4=C3C)O[C@@H]2C1 | 460 | 462 | 469 | 449 | 460 | 451 | 454 | 441 | 449 |
| Cc1c(Cn2c(C)nc3c(C(=O)O)cc(N4CCOCC4)cc32)cccc1C(F)(F)F | 469 | 463 | 455 | 448 | 474 | 465 | 472 | 463 | 470 |
| CC(C)Nc1cc(C(F)(F)F)cc2nc(NC(=O)c3cccnc3)nn12 | 340 | 323 | 329 | 406 | 394 | 386 | 334 | 364 | 350 |
| CC[C@H]1/C=C\C=C/C[C@@H](C)[C@H](O)[C@@](C)(O)C(=O)[C@@H](C)[C@H](O)[C@@H](C)C(=O)[C@@H](C)[C@H](O)[C@@H](C)/C=C/C(=O)O[C@@H]2[C@H](C)[C@H](CC1)O[C@]1(CC[C@H](C)[C@H](C[C@@H](C)O)O1)[C@H]2C | 362 | 340 | 354 | 368 | 331 | 324 | 389 | 388 | 363 |
| CO[C@H]1C[C@@H]2CC[C@@H](C)[C@@](O)(O2)C(=O)C(=O)N2CCCC[C@H]2C(=O)O[C@H]([C@H](C)C[C@@H]2CC[C@@H](OC(=O)C(C)(CO)CO)[C@H](OC)C2)CC(=O)[C@H](C)/C=C(\C)[C@@H](O)[C@@H](OC)C(=O)[C@H](C)C[C@H](C)/C=C/C=C/C=C/1C |  |  |  | 453 | 435 | 447 | 427 | 409 | 418 |
| CCN(CC)C(=S)SSC(=S)N(CC)CC |  |  |  | 375 | 365 | 361 | 366 | 363 | 362 |
| c1cc(CN2CCCNCCNCCCNCC2)ccc1CN1CCCNCCNCCCNCC1 | 390 | 387 | 416 |  |  |  |  |  |  |
| NC(CO)(CO)CCc1ccc(Sc2cccc(OCc3ccccc3)c2)cc1Cl |  |  |  | 397 | 424 | 453 | 400 | 408 | 400 |
| COc1cc(Nc2ncc(F)c(Nc3ccc4c(n3)NC(=O)C(C)(C)O4)n2)cc(OC)c1OC |  |  |  | 379 | 392 | 404 | 373 | 386 | 384 |
| CCN(CC)CCCCNc1nc2cc(Cl)c(Cl)cc2nc1-c1ccc(-c2cccs2)s1 |  |  |  | 444 | 454 | 453 |  |  |  |
